Results published in patent publication US10300065B2, “Method of treating or prevention of atherothrombotic events in patients with history of myocardial infarction” (ASTRAZENECA AB, priority 2015, dated 2019).

Columns and labels:
[1] = tested on: patients with acute coronary syndrome; conditions: cited from earlier work
[2] = cited from earlier work
[3] = tested on: patients with a history of myocardial infarction; experiment: PEGASUS-TIMI 54 analysis by time from P2Y12 inhibitor withdrawal to randomization; conditions: for All-cause mortality, HR / Cor. heart dis. death, HR / Fatal bleeding, HR / Intracranial bleeding, HR / Myocardial infarction, HR / Stroke, HR / TIMI Major Bleeding, HR / TIMI Major or Minor Bleeding, HR / All-cause mortality, (%) / Cor. heart dis. death, (%) / Fatal bleeding, (%) / Intracranial bleeding, (%) / Myocardial infarction, (%) / Stroke, (%) / TIMI Major Bleeding, (%) / TIMI Major or Minor Bleeding, (%): at 3 years
Excerpt: Patients in PEGASUS-TIMI 54 were further categorized by time from last P2Y12 inhibitor (days: ≤30 days, 31-360, >360).

[4] = 60 mg and 90 mg pooled, between 31 days and one year following withdrawal
[5] = 60 mg and 90 mg pooled, within 30 days following withdrawal of dual antiplatelet therapy
[6] = >1 year from P2Y12 inhibitor withdrawal, ticagrelor 60 mg bid vs. placebo
[7] = >1 year from P2Y12 inhibitor withdrawal, ticagrelor 60 mg bid
[8] = >1 year from P2Y12 inhibitor withdrawal, ticagrelor 90 mg bid vs. placebo
[9] = >1 year from P2Y12 inhibitor withdrawal, ticagrelor 90 mg bid
[10] = >1 year from P2Y12 inhibitor withdrawal, ticagrelor pooled vs. placebo
[11] = >1 year from P2Y12 inhibitor withdrawal, ticagrelor pooled
[12] = >30 days to ≤1 year from P2Y12 inhibitor withdrawal, ticagrelor 60 mg bid vs. placebo
[13] = >30 days to ≤1 year from P2Y12 inhibitor withdrawal, ticagrelor 60 mg bid
[14] = >30 days to ≤1 year from P2Y12 inhibitor withdrawal, ticagrelor 90 mg bid vs. placebo
[15] = >30 days to ≤1 year from P2Y12 inhibitor withdrawal, ticagrelor 90 mg bid
[16] = >30 days to ≤1 year from P2Y12 inhibitor withdrawal, ticagrelor pooled vs. placebo
[17] = >30 days to ≤1 year from P2Y12 inhibitor withdrawal, ticagrelor pooled
[18] = pooled doses, withdrawal within 30 days
[19] = ≤30 days from P2Y12 inhibitor withdrawal, ticagrelor 60 mg bid vs. placebo
[20] = ≤30 days from P2Y12 inhibitor withdrawal, ticagrelor 60 mg bid
[21] = ≤30 days from P2Y12 inhibitor withdrawal, ticagrelor 90 mg bid vs. placebo
[22] = ≤30 days from P2Y12 inhibitor withdrawal, ticagrelor 90 mg bid
[23] = ≤30 days from P2Y12 inhibitor withdrawal, ticagrelor pooled vs. placebo
[24] = ≤30 days from P2Y12 inhibitor withdrawal, ticagrelor pooled

CCCSc1nc(N[C@@H]2C[C@H]2c2ccc(F)c(F)c2)c2nnn([C@@H]3C[C@H](OCCO)[C@@H](O)[C@H]3O)c2n1 [Ticagrelor, (1S,2S,3R,5S)-3-[7-{[(1R,2S)-2-(3,4-difluorophenyl)cyclopropyl]amino}-5-(propylthio)-3H-[1,2,3]-triazolo[4,5-d]pyrimidin-3-yl]-5-(2-hydroxyethoxy)cyclopentane-1,2-diol]
major adverse cardiovascular events including cardiovascular death compared with clopidogrel 75 mg once daily ([1]; 90 mg twice daily added to aspirin for up to 1 year, acute coronary syndrome): reduced | effect on pulmonary function ([1]; PLATO substudy, 199 subjects, after one month or after at least 6 months of chronic treatment): no indication of an adverse effect on pulmonary function | reports of gout ([1]; PLATO, each treatment group): 0.6% | serum uric acid level increase from baseline ([1]; PLATO, ticagrelor 90 mg bid): approximately 0.6 mg/dL | increase in AUC ([2]; high-fat meal): 21% | mean absolute bioavailability ([2]; human, in vivo): about 36% | steady state volume of distribution ([2]; human, in vivo): 88 L | median tmax ([2]; in patients after administration of ticagrelor): 1.5 h | absolute reduction in the risk of a subsequent atherothrombotic event [3, 4]: 1.1% | reduction in the risk of developing a subsequent atherothrombotic event [3, 4]: 14% | absolute reduction in the risk of a subsequent atherothrombotic event [3, 5]: 2.2% | reduction in the risk of developing a subsequent atherothrombotic event [3, 5]: 27% | All-cause mortality, HR [3, 6]: 1.34 | Cor. heart dis. death, HR [3, 6]: 0.96 | Fatal bleeding, HR [3, 6]: 1.11 | Intracranial bleeding, HR [3, 6]: 1.56 | Myocardial infarction, HR [3, 6]: 0.95 | Stroke, HR [3, 6]: 0.95 | TIMI Major Bleeding, HR [3, 6]: 2.1 | TIMI Major or Minor Bleeding, HR [3, 6]: 2.11 | All-cause mortality, (%) [3, 7]: (4.6) % | Cor. heart dis. death, (%) [3, 7]: (1.2) % | Fatal bleeding, (%) [3, 7]: (0.1) % | Intracranial bleeding, (%) [3, 7]: (0.6) % | Myocardial infarction, (%) [3, 7]: (4.1) % | Stroke, (%) [3, 7]: (1.2) % | TIMI Major Bleeding, (%) [3, 7]: (1.9) % | TIMI Major or Minor Bleeding, (%) [3, 7]: (2.3) % | All-cause mortality, HR [3, 8]: 1.31 | Cor. heart dis. death, HR [3, 8]: 0.77 | Intracranial bleeding, HR [3, 8]: 1.42 | Myocardial infarction, HR [3, 8]: 0.84 | Stroke, HR [3, 8]: 1.13 | TIMI Major Bleeding, HR [3, 8]: 3.28 | TIMI Major or Minor Bleeding, HR [3, 8]: 3.82 | All-cause mortality, (%) [3, 9]: (4.7) % | Cor. heart dis. death, (%) [3, 9]: (1.1) % | Fatal bleeding, (%) [3, 9]: (0) % | Intracranial bleeding, (%) [3, 9]: (0.5) % | Myocardial infarction, (%) [3, 9]: (3.6) % | Stroke, (%) [3, 9]: (1.5) % | TIMI Major Bleeding, (%) [3, 9]: (3) % | TIMI Major or Minor Bleeding, (%) [3, 9]: (4.4) % | All-cause mortality, HR [3, 10]: 1.32 | Cor. heart dis. death, HR [3, 10]: 0.86 | Fatal bleeding, HR [3, 10]: 0.57 | Intracranial bleeding, HR [3, 10]: 1.48 | Myocardial infarction, HR [3, 10]: 0.9 | Stroke, HR [3, 10]: 1.04 | TIMI Major Bleeding, HR [3, 10]: 2.67 | TIMI Major or Minor Bleeding, HR [3, 10]: 2.94 | All-cause mortality, (%) [3, 11]: (4.6) % | Cor. heart dis. death, (%) [3, 11]: (1.2) % | Fatal bleeding, (%) [3, 11]: (0) % | Intracranial bleeding, (%) [3, 11]: (0.6) % | Myocardial infarction, (%) [3, 11]: (3.9) % | Stroke, (%) [3, 11]: (1.3) % | TIMI Major Bleeding, (%) [3, 11]: (2.4) % | TIMI Major or Minor Bleeding, (%) [3, 11]: (3.5) % | All-cause mortality, HR [3, 12]: 0.76 | Cor. heart dis. death, HR [3, 12]: 0.70 | Fatal bleeding, HR [3, 12]: 0.87 | Intracranial bleeding, HR [3, 12]: 1.97 | Myocardial infarction, HR [3, 12]: 0.88 | Stroke, HR [3, 12]: 0.82 | TIMI Major Bleeding, HR [3, 12]: 2.94 | TIMI Major or Minor Bleeding, HR [3, 12]: 3.07 | All-cause mortality, (%) [3, 13]: (3.8) % | Cor. heart dis. death, (%) [3, 13]: (1.4) % | Fatal bleeding, (%) [3, 13]: (0.3) % | Intracranial bleeding, (%) [3, 13]: (0.6) % | Myocardial infarction, (%) [3, 13]: (4.6) % | Stroke, (%) [3, 13]: (1.4) % | TIMI Major Bleeding, (%) [3, 13]: (2.7) % | TIMI Major or Minor Bleeding, (%) [3, 13]: (3.8) % | All-cause mortality, HR [3, 14]: 1.01 | Cor. heart dis. death, HR [3, 14]: 0.71 | Fatal bleeding, HR [3, 14]: 0.24 | Intracranial bleeding, HR [3, 14]: 1.63 | Myocardial infarction, HR [3, 14]: 0.82 | Stroke, HR [3, 14]: 1.02 | TIMI Major Bleeding, HR [3, 14]: 2.85 | TIMI Major or Minor Bleeding, HR [3, 14]: 3.17 | All-cause mortality, (%) [3, 15]: (4.8) % | Cor. heart dis. death, (%) [3, 15]: (1.4) % | Fatal bleeding, (%) [3, 15]: (0.1) % | Intracranial bleeding, (%) [3, 15]: (0.5) % | Myocardial infarction, (%) [3, 15]: (4.2) % | Stroke, (%) [3, 15]: (1.9) % | TIMI Major Bleeding, (%) [3, 15]: (2.8) % | TIMI Major or Minor Bleeding, (%) [3, 15]: (3.9) % | All-cause mortality, HR [3, 16]: 0.88 | Cor. heart dis. death, HR [3, 16]: 0.70 | Fatal bleeding, HR [3, 16]: 0.57 | Intracranial bleeding, HR [3, 16]: 1.81 | Myocardial infarction, HR [3, 16]: 0.85 | Stroke, HR [3, 16]: 0.91 | TIMI Major Bleeding, HR [3, 16]: 2.89 | TIMI Major or Minor Bleeding, HR [3, 16]: 3.11 | All-cause mortality, (%) [3, 17]: (4.3) % | Cor. heart dis. death, (%) [3, 17]: (1.4) % | Fatal bleeding, (%) [3, 17]: (0.2) % | Intracranial bleeding, (%) [3, 17]: (0.5) % | Myocardial infarction, (%) [3, 17]: (4.4) % | Stroke, (%) [3, 17]: (1.7) % | TIMI Major Bleeding, (%) [3, 17]: (2.7) % | TIMI Major or Minor Bleeding, (%) [3, 17]: (3.8) % | HR for cardiovascular death, myocardial infarction, or stroke vs. placebo ([3]; doses pooled, withdrawal ≤30 days, beyond 90 days): 0.76 | HR for cardiovascular death, myocardial infarction, or stroke vs. placebo ([3]; doses pooled, withdrawal ≤30 days, first 90 days after randomization): 0.54 | reduction in the risk of developing a subsequent atherothrombotic event ([3]; more than one year after withdrawal of previous dual antiplatelet therapy): did not experience a reduction | HR for cardiovascular death, myocardial infarction, or stroke vs. placebo ([3]; pooled doses, time from last P2Y12 inhibitor 31-360 days): 0.86 | HR for cardiovascular death, myocardial infarction, or stroke vs. placebo ([3]; pooled doses, time from last P2Y12 inhibitor >360 days): 1.01 | HR for cardiovascular death, myocardial infarction, or stroke vs. placebo ([3]; pooled doses, time from last P2Y12 inhibitor ≤30 days): 0.73 | HR for cardiovascular death vs. placebo [3, 18]: 0.78 | HR for myocardial infarction vs. placebo [3, 18]: 0.72 | HR for stroke vs. placebo [3, 18]: 0.64 | HR for cardiovascular death, myocardial infarction, or stroke vs. placebo ([3]; pooled doses, ≤30 days of stopping, qualifying MI <2 years prior to randomization): 0.73 | HR for cardiovascular death, myocardial infarction, or stroke vs. placebo ([3]; pooled doses, ≤30 days of stopping, qualifying MI ≥2 years prior to randomization): 0.71 | All-cause mortality, HR [3, 19]: 0.80 | Cor. heart dis. death, HR [3, 19]: 0.78 | Fatal bleeding, HR [3, 19]: 2.15 | Intracranial bleeding, HR [3, 19]: 1.53 | Myocardial infarction, HR [3, 19]: 0.78 | Stroke, HR [3, 19]: 0.64 | TIMI Major Bleeding, HR [3, 19]: 3.3 | TIMI Major or Minor Bleeding, HR [3, 19]: 3.43 | All-cause mortality, (%) [3, 20]: (4.3) % | Cor. heart dis. death, (%) [3, 20]: (1.5) % | Fatal bleeding, (%) [3, 20]: (0.4) % | Intracranial bleeding, (%) [3, 20]: (0.8) % | Myocardial infarction, (%) [3, 20]: (5.2) % | Stroke, (%) [3, 20]: (1.5) % | TIMI Major Bleeding, (%) [3, 20]: (2.6) % | TIMI Major or Minor Bleeding, (%) [3, 20]: (4.1) % | All-cause mortality, HR [3, 21]: 1.02 | Cor. heart dis. death, HR [3, 21]: 0.67 | Fatal bleeding, HR [3, 21]: 2.25 | Intracranial bleeding, HR [3, 21]: 2.07 | Myocardial infarction, HR [3, 21]: 0.67 | Stroke, HR [3, 21]: 0.64 | TIMI Major Bleeding, HR [3, 21]: 3.44 | TIMI Major or Minor Bleeding, HR [3, 21]: 3.57 | All-cause mortality, (%) [3, 22]: (5.1) % | Cor. heart dis. death, (%) [3, 22]: (1.1) % | Fatal bleeding, (%) [3, 22]: (0.2) % | Intracranial bleeding, (%) [3, 22]: (0.7) % | Myocardial infarction, (%) [3, 22]: (4.6) % | Stroke, (%) [3, 22]: (1.3) % | TIMI Major Bleeding, (%) [3, 22]: (2.4) % | TIMI Major or Minor Bleeding, (%) [3, 22]: (3.8) % | All-cause mortality, HR [3, 23]: 0.91 | Cor. heart dis. death, HR [3, 23]: 0.72 | Fatal bleeding, HR [3, 23]: 2.2 | Intracranial bleeding, HR [3, 23]: 1.79 | Myocardial infarction, HR [3, 23]: 0.72 | Stroke, HR [3, 23]: 0.64 | TIMI Major Bleeding, HR [3, 23]: 3.36 | TIMI Major or Minor Bleeding, HR [3, 23]: 3.50 | All-cause mortality, (%) [3, 24]: (4.7) % | Cor. heart dis. death, (%) [3, 24]: (1.3) % | Fatal bleeding, (%) [3, 24]: (0.3) % | Intracranial bleeding, (%) [3, 24]: (0.7) % | Myocardial infarction, (%) [3, 24]: (4.9) % | Stroke, (%) [3, 24]: (1.4) % | TIMI Major Bleeding, (%) [3, 24]: (2.5) % | TIMI Major or Minor Bleeding, (%) [3, 24]: (4.0%
